Data on one molecule can be found in patent US12458700B2, “Amine-containing transfection reagents and methods for making and using same” (Life Technologies Corporation, priority 2010, dated 2025).

For the experiment, the system named is CSNK2A1. Put plainly: CSNK2A1 siRNA knockdown by qPCR in Hela, primary cortical neurons and primary hippocampal neurons. The experiment is classed as cell-based, human, rat. The following applies: lipoplex with cholesterol 1:0.5, 30 nM siRNA, 24 h, FIG. 5. The text has this: Some lipids of the present invention were formulated into lipid compositions, which also comprise cholesterol or DOPE, buffers and ethanol. Animal origin-free cholesterol was purchased from Sigma-Aldrich (St Louis, MO) and DOPE was purchased from Avanti Lipids (Alabaster, AL). Silencer® Select CSNK2A1 siRNA and Silencer® Select negative control siRNA (cat #4390824 siRNA id#s3637 and cat #4390843) having the antisense sequence […] (SEQ ID NO:2) and […] (SEQ ID NO:3), respectively, were resuspended with nuclease-free water to a stock concentration of 50 μM, which were further diluted to meet downstream experiments and is commercially available from Life Technologies (Carlsbad, CA).
For compounds 83 and 67, the dry powder lipids were re-suspended in ethanol at a final concentration of 1 mg/ml and either used as lipid alone (Compound 83) or combined with cholesterol in 1:0.5 ratio (Compound 67). The formulations tested were made as described in Table 3
Primary rat cortex neuronal cells were purchased from GIBCO (Cat. No. A10840) and maintained in Neurobasal™ medium (cat #21103-049) supplemented with 2% B-27® Serum-free (50× cat #17504-044) and 0.5 mM GlutaMAX™ (cat #35050-061). […]
(In general: Quantitative PCR measures a nucleic acid by following its amplification.)

Regarding `CCCCCCCCCCCCNC(=O)CNCCCN(CCCCNCCCN(CC(=O)NCCCCCCCCCCCC)CC(=O)NCCCCCCCCCCCC)CC(=O)NCCCCCCCCCCCC` [Compound 67], the “relative percent of CSNK2A1 remaining activity normalized to negative control” value is “do possess activity in vitro”.
